Measurements from article PMC6688997 (Nature Communications, 2019).
Several values for one entry are separate records, joined by “and”; a condition that tells them apart may be missing. Equal entries are not always repeated.

Tests used:
[1] = system: EML4-ALK G1202R induced Ba/F3 cells; assay: CellTiter-Glo cell viability assay; type: cell-based, murine; conditions: Mus musculus, BaF3, 72 h; read-out: IC50
[2] = Body weight of U-118 MG xenograft mice; type: in vivo, mouse; conditions: for Body Weight Change(%): individual animals; for Body Weight Change(%) (average / SD): N 5
[3] = molecular target: T1, DDR2 (Homo sapiens, UniProt Q16832); assay: Kinase assay, ATP Km; type: biochemical
T1 sequence (Q16832 22-855): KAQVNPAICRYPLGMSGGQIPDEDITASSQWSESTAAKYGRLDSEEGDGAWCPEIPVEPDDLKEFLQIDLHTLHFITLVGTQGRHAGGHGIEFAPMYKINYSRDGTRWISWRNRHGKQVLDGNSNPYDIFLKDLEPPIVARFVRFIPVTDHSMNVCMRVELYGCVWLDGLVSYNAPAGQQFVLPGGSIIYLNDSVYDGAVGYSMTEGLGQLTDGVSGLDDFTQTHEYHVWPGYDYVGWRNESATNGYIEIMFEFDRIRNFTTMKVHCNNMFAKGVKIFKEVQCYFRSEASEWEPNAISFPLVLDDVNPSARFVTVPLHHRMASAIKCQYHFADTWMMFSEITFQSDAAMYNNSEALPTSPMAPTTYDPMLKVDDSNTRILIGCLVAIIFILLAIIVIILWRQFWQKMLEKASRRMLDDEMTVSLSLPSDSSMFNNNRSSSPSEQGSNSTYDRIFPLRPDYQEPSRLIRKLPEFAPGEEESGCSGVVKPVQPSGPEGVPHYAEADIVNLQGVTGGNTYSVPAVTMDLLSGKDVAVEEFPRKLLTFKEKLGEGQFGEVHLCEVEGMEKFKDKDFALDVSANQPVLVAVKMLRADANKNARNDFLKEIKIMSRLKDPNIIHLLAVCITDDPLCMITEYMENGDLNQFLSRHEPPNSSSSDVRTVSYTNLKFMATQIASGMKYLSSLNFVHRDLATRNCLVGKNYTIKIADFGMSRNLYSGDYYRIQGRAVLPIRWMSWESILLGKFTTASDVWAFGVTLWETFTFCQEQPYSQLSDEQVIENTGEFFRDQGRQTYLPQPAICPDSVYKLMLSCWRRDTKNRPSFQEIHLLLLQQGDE

[4] = molecular target: T2, NDR2 (Homo sapiens, UniProt Q9Y2H1); assay: Kinase assay, ATP Km; type: biochemical
T2 construct: purchased Carna Biosciences

[5] = molecular target: BLK (Homo sapiens, UniProt P51451); assay: Kinase assay, ATP Km; type: biochemical
[6] = molecular target: T3, PKR (Homo sapiens, UniProt P19525); assay: Kinase assay, ATP Km; type: biochemical
T3 construct: purchased Carna Biosciences

[7] = molecular target: T4, NEK4 (Homo sapiens, UniProt P51957); assay: Kinase assay, ATP Km; type: biochemical
T4 construct: purchased Carna Biosciences

[8] = molecular target: AKT3 (Homo sapiens, UniProt Q9Y243); assay: Kinase assay, ATP Km; type: biochemical
[9] = molecular target: CDK6/CycD3 (Homo sapiens, UniProt Q00534); assay: Kinase assay, ATP Km; type: biochemical
[10] = molecular target: PKACα (Homo sapiens, UniProt P17612); assay: Kinase assay, ATP Km; type: biochemical
[11] = molecular target: T1, DDR2; assay: Kinase assay, 1 mM ATP; type: biochemical

T2 sequence (Q9Y2H1 whole entry): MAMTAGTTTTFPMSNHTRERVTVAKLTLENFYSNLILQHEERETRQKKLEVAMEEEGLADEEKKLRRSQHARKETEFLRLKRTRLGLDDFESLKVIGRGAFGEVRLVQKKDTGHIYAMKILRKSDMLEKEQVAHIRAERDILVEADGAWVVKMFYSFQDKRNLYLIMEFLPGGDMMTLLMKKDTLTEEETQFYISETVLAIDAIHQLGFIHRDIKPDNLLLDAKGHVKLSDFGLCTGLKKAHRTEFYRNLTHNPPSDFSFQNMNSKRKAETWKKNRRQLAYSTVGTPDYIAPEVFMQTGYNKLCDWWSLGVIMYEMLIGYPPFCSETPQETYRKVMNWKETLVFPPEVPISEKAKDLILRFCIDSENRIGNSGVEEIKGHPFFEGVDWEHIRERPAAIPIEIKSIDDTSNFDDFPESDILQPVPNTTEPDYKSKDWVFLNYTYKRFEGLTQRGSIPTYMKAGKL
Chain of CDK6/CycD3 (Q00534 whole entry): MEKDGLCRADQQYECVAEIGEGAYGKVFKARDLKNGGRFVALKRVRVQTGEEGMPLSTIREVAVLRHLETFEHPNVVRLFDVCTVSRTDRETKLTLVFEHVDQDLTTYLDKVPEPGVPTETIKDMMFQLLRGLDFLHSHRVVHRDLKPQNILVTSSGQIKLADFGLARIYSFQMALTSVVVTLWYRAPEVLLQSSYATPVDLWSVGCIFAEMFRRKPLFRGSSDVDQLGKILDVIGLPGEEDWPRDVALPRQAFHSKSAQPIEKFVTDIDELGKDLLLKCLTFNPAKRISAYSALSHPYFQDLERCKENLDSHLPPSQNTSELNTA
Chain of CDK6/CycD3 (P30281 whole entry partner): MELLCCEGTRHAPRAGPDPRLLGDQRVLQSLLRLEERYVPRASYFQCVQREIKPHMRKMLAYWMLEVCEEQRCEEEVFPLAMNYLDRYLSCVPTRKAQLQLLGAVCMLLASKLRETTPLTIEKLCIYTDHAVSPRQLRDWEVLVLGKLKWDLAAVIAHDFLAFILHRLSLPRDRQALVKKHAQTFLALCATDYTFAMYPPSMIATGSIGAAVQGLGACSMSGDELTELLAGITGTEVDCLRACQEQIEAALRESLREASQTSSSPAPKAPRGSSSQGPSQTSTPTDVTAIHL
T4 sequence (P51957 whole entry): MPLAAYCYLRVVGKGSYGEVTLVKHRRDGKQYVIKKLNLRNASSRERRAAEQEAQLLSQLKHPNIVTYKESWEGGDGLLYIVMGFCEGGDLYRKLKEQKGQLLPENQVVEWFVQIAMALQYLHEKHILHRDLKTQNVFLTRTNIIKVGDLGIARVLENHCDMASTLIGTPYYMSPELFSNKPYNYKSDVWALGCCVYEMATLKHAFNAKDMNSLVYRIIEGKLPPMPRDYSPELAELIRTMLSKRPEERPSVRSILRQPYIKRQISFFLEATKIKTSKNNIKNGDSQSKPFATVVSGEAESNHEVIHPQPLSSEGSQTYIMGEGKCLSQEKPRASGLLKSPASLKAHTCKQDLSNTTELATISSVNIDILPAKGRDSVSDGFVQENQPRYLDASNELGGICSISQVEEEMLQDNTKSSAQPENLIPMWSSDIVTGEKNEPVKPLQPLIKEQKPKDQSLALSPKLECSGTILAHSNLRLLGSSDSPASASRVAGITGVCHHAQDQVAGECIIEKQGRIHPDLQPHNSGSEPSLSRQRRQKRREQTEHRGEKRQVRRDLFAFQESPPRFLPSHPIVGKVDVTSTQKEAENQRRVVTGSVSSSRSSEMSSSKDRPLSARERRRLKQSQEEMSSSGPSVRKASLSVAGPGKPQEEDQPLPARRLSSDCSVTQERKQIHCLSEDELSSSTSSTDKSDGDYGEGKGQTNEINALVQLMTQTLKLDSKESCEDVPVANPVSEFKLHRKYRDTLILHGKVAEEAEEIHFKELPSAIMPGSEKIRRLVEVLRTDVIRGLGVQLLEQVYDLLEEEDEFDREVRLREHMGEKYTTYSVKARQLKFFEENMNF
Chain of AKT3 (Q9Y243 whole entry): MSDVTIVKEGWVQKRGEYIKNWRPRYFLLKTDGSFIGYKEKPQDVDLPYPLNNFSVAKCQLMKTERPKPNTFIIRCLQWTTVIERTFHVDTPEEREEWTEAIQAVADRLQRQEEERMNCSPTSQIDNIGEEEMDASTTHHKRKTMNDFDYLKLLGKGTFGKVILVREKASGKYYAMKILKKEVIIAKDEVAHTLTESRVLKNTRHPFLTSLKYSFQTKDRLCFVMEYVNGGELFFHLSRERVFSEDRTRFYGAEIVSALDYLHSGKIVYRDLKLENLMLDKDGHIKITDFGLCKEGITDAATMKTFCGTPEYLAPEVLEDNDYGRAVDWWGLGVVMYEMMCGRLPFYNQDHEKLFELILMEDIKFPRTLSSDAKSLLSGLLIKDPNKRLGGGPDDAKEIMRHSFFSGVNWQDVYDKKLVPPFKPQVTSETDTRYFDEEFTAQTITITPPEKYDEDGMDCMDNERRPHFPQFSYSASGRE
T3 sequence (P19525 whole entry): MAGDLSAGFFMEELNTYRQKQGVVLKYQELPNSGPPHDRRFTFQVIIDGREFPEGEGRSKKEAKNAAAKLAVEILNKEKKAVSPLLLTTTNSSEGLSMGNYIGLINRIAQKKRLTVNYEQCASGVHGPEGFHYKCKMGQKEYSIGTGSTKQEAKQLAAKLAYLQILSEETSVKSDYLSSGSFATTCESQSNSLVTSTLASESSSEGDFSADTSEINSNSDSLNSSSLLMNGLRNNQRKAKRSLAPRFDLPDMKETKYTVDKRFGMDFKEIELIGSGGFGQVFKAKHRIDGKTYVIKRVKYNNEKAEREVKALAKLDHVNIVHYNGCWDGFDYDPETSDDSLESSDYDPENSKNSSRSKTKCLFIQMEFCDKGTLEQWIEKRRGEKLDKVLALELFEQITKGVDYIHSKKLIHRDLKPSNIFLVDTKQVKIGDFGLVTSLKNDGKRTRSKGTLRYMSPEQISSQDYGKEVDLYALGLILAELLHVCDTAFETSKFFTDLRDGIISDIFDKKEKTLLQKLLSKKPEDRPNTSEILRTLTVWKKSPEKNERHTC
Chain of BLK (P51451 whole entry): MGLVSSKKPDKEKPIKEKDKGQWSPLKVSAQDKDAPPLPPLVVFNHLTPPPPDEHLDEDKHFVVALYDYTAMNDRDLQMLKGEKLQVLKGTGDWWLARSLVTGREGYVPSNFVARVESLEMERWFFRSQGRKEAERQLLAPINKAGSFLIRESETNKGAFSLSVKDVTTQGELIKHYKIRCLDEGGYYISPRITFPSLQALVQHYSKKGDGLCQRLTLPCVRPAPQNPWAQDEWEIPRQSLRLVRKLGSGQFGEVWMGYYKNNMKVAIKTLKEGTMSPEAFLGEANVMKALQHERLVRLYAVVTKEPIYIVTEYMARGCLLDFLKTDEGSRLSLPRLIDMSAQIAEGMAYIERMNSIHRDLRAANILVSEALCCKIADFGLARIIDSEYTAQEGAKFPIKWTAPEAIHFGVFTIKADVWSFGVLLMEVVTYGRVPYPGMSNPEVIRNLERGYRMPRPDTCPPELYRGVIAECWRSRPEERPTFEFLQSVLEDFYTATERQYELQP

In the case of `C[C@@H](N)COc1ccc(-c2cnc3ccc(N[C@H](C)c4cccc(F)c4)nn23)cc1.O=C(O)CCCCC(=O)O` [DS-6051b], the IC50 [1] is reported as 261 nM, the “Body Weight Change(%)” value ([2]; 25 mg/kg po, day 10) is reported as 0.0% and the “Body Weight Change(%)” value ([2]; 25 mg/kg po, day 11) is reported as -2.5% and -1.4% and -4.1% and -0.9% and 0.0%. The “Body Weight Change(%)” value ([2]; 25 mg/kg po, day 12) was -3.5% and 0.0% and -2.7% and -1.4% and 1.9%, the “Body Weight Change(%)” value ([2]; 25 mg/kg po, day 13) was -4.0% and -0.9% and -3.2% and 2.4% and the “Body Weight Change(%)” value ([2]; 25 mg/kg po, day 14) was -5.1% and -2.8% and -5.0% and -0.9% and 2.4%. The “Body Weight Change(%)” value ([2]; 25 mg/kg po, day 15) was -6.1% and -1.4% and -5.0% and 3.8%, the “Body Weight Change(%)” value ([2]; 25 mg/kg po, day 16) was -9.1% and -0.9% and -6.3% and -2.3% and 4.3% and the “Body Weight Change(%)” value ([2]; 25 mg/kg po, day 17) was -7.6% and 1.9% and -5.0% and -0.9% and 5.2%. The “Body Weight Change(%)” value ([2]; 25 mg/kg po, day 18) was -7.6% and 0.5% and -4.5% and -0.9% and 5.7%, the “Body Weight Change(%)” value ([2]; 25 mg/kg po, day 19) was -8.1% and 1.4% and -2.3% and -1.4% and 6.6% and the “Body Weight Change(%)” value ([2]; 25 mg/kg po, day 20) was -7.6% and 0.9% and -1.8% and -2.3% and 5.2%. For the same molecule, the “Body Weight Change(%)” value ([2]; 25 mg/kg po, day 21) was -6.6% and 0.0% and -2.3% and -3.6% and 6.2%, the “Body Weight Change(%)” value ([2]; 25 mg/kg po, day 22) was -6.6% and 2.4% and -2.3% and -2.7% and 4.3% and the “Body Weight Change(%)” value ([2]; 25 mg/kg po, day 23) was -8.6% and 1.9% and -0.9% and 4.7%. For the same molecule, the “Body Weight Change(%)” value ([2]; 25 mg/kg po, day 24) was -4.5% and 2.8% and -2.3% and 0.9% and 5.2%, the “Body Weight Change(%)” value ([2]; 25 mg/kg po, day 25) was -3.0% and 3.3% and -1.4% and 3.6% and 6.2% and the “Body Weight Change(%)” value ([2]; 25 mg/kg po, day 26) was -2.5% and 6.6% and -1.4% and 3.6% and 9.5%. For the same molecule, the “Body Weight Change(%)” value ([2]; 25 mg/kg po, day 27) was -1.5% and 6.6% and -0.5% and 2.7% and 6.2%, the “Body Weight Change(%)” value ([2]; 25 mg/kg po, day 28) was -0.5% and 5.2% and -0.9% and 3.2% and 7.1% and the “Body Weight Change(%) (average / SD)” value ([2]; 25 mg/kg, day 0) was 0.0%. For the same molecule, the “Body Weight Change(%) (average / SD)” value ([2]; 25 mg/kg, day 1) was -1.8%, the “Body Weight Change(%) (average / SD)” value ([2]; 25 mg/kg, day 2) was -1.1% and the “Body Weight Change(%) (average / SD)” value ([2]; 25 mg/kg, day 3) was -1.3%. For the same molecule, the “Body Weight Change(%) (average / SD)” value ([2]; 25 mg/kg, day 4) was -2.3%, the “Body Weight Change(%) (average / SD)” value ([2]; 25 mg/kg, day 5) was -2.0% and the “Body Weight Change(%) (average / SD)” value ([2]; 25 mg/kg, day 6) was -2.9%. For the same molecule, the “Body Weight Change(%) (average / SD)” value ([2]; 25 mg/kg, day 7) was -1.3%, the “Body Weight Change(%) (average / SD)” value ([2]; 25 mg/kg, day 8) was -1.4% and the “Body Weight Change(%) (average / SD)” value ([2]; 25 mg/kg, day 9) was -0.8%. The “Body Weight Change(%) (average / SD)” value ([2]; 25 mg/kg, day 10) was -1.1%, the “Body Weight Change(%) (average / SD)” value ([2]; 25 mg/kg, day 11) was -1.3% and the “Body Weight Change(%) (average / SD)” value ([2]; 25 mg/kg, day 12) was -1.0%. The “Body Weight Change(%) (average / SD)” value ([2]; 25 mg/kg, day 13) was -0.8%, the “Body Weight Change(%) (average / SD)” value ([2]; 25 mg/kg, day 14) was 0.4% and the “Body Weight Change(%) (average / SD)” value ([2]; 25 mg/kg, day 15) was 1.7%. The “Body Weight Change(%) (average / SD)” value ([2]; 25 mg/kg, day 16) was 3.2%, the “Body Weight Change(%) (average / SD)” value ([2]; 25 mg/kg, day 17) was 2.7% and the “Body Weight Change(%) (average / SD)” value ([2]; 25 mg/kg, day 18) was 2.8%. For the same molecule, the “Body Weight Change(%)” value ([2]; 50 mg/kg po, day 10) was 0.0%, the “Body Weight Change(%)” value ([2]; 50 mg/kg po, day 11) was 1.5% and the “Body Weight Change(%)” value ([2]; 50 mg/kg po, day 19) was 1.5%. For the same molecule, the “Body Weight Change(%)” value ([2]; 50 mg/kg po, day 20) was 2.0%, the “Body Weight Change(%)” value ([2]; 50 mg/kg po, day 21) was 2.0% and the “Body Weight Change(%)” value ([2]; 50 mg/kg po, day 22) was 1.0%. The “Body Weight Change(%)” value ([2]; 50 mg/kg po, day 23) was 2.0%, the “Body Weight Change(%)” value ([2]; 50 mg/kg po, day 24) was 1.5% and the “Body Weight Change(%)” value ([2]; 50 mg/kg po, day 25) was 0.0%. The “Body Weight Change(%)” value ([2]; 50 mg/kg po, day 26) was 3.5%, the “Body Weight Change(%)” value ([2]; 50 mg/kg po, day 27) was 3.5% and the “Body Weight Change(%)” value ([2]; 50 mg/kg po, day 28) was 4.5%. The “Body Weight Change(%) (average / SD)” value ([2]; 50 mg/kg, day 0) was 0.0%, the “Body Weight Change(%) (average / SD)” value ([2]; 50 mg/kg, day 1) was 0.4% and the “Body Weight Change(%) (average / SD)” value ([2]; 50 mg/kg, day 2) was 0.4%. The “Body Weight Change(%) (average / SD)” value ([2]; 50 mg/kg, day 3) was 1.8%, the “Body Weight Change(%) (average / SD)” value ([2]; 50 mg/kg, day 4) was 0.9% and the “Body Weight Change(%) (average / SD)” value ([2]; 50 mg/kg, day 5) was 0.9%. The “Body Weight Change(%) (average / SD)” value ([2]; 50 mg/kg, day 6) was 0.2%, the “Body Weight Change(%) (average / SD)” value ([2]; 50 mg/kg, day 7) was 2.6% and the “Body Weight Change(%) (average / SD)” value ([2]; 50 mg/kg, day 8) was 2.8%. For the same molecule, the “Body Weight Change(%) (average / SD)” value ([2]; 50 mg/kg, day 9) was 1.2%, the “Body Weight Change(%) (average / SD)” value ([2]; 50 mg/kg, day 10) was 1.2% and the “Body Weight Change(%) (average / SD)” value ([2]; 50 mg/kg, day 11) was 0.8%. For the same molecule, the “Body Weight Change(%) (average / SD)” value ([2]; 50 mg/kg, day 12) was 2.3%, the “Body Weight Change(%) (average / SD)” value ([2]; 50 mg/kg, day 13) was 2.9% and the “Body Weight Change(%) (average / SD)” value ([2]; 50 mg/kg, day 14) was 3.9%. For the same molecule, the “Body Weight Change(%) (average / SD)” value ([2]; 50 mg/kg, day 15) was 3.5%, the “Body Weight Change(%) (average / SD)” value ([2]; 50 mg/kg, day 16) was 4.9% and the “Body Weight Change(%) (average / SD)” value ([2]; 50 mg/kg, day 17) was 4.4%. The “Body Weight Change(%) (average / SD)” value ([2]; 50 mg/kg, day 18) was 5.5%, the “Body Weight Change(%) (average / SD)” value ([2]; 100 mg/kg, day 0) was 0.0% and the “Body Weight Change(%) (average / SD)” value ([2]; 100 mg/kg, day 1) was -0.7%. The “Body Weight Change(%) (average / SD)” value ([2]; 100 mg/kg, day 2) was 2.0%, the “Body Weight Change(%) (average / SD)” value ([2]; 100 mg/kg, day 3) was 2.9% and the “Body Weight Change(%) (average / SD)” value ([2]; 100 mg/kg, day 4) was 3.6%. For the same molecule, the “Body Weight Change(%) (average / SD)” value ([2]; 100 mg/kg, day 5) was 4.8%, the “Body Weight Change(%) (average / SD)” value ([2]; 100 mg/kg, day 6) was 3.7% and the “Body Weight Change(%) (average / SD)” value ([2]; 100 mg/kg, day 7) was 7.0%. The “Body Weight Change(%) (average / SD)” value ([2]; 100 mg/kg, day 8) was 5.7%, the “Body Weight Change(%) (average / SD)” value ([2]; 100 mg/kg, day 9) was 5.0% and the “Body Weight Change(%) (average / SD)” value ([2]; 100 mg/kg, day 10) was 4.2%. For the same molecule, the “Body Weight Change(%) (average / SD)” value ([2]; 100 mg/kg, day 11) was 4.6%, the “Body Weight Change(%) (average / SD)” value ([2]; 100 mg/kg, day 12) was 5.5% and the “Body Weight Change(%) (average / SD)” value ([2]; 100 mg/kg, day 13) was 4.1%. The “Body Weight Change(%) (average / SD)” value ([2]; 100 mg/kg, day 14) was 5.1%, the “Body Weight Change(%) (average / SD)” value ([2]; 100 mg/kg, day 15) was 7.2% and the “Body Weight Change(%) (average / SD)” value ([2]; 100 mg/kg, day 16) was 8.9%. The “Body Weight Change(%) (average / SD)” value ([2]; 100 mg/kg, day 17) was 8.0%, the “Body Weight Change(%) (average / SD)” value ([2]; 100 mg/kg, day 18) was 7.6% and the “Body Weight Change(%) (average / SD)” value ([2]; 200 mg/kg, day 4) was 0.8%. The “Body Weight Change(%) (average / SD)” value ([2]; 200 mg/kg, day 5) was 0.5%, the “Body Weight Change(%) (average / SD)” value ([2]; 200 mg/kg, day 6) was 1.7% and the Body weight loss ([2]; ≥25 mg/kg) was “without significant body weight loss”. The inhibition at 0.04 µM [3] was 93.7%, the inhibition at 0.04 µM [4] was 43.8% and the inhibition at 0.04 µM [5] was 29.8%. It also gave an inhibition at 0.04 µM [6] of 3.5%, an inhibition at 0.04 µM [7] of 2.8% and an inhibition at 0.04 µM [8] of -0.9%. The inhibition at 0.04 µM [9] was -2.6%, the inhibition at 0.04 µM [10] was -6.2% and the inhibition at 0.2 µM ([11]; 0.2μM, 1 mM ATP) was 43.5%. The IC50 ([11]; ATP: 1 mM) was 299 nM.
